According to patent US8993562B2, “Imidazo[1,2-b]pyridazines, processes, uses, intermediates and compositions” (Ferrer Internacional, S.A., priority 2006, dated 2015):

Legend:
male CD1 mice = assay: In vivo predictive sedation-hypnosis test (traveled distance); conditions: Mus musculus, ip, 0.5 h, 98.0 μmol/kg intraperitoneal, traveled distance over 30 min versus control, read-out: % inhib motor activity
α1-GABAA receptor = assay: Ligand-binding assay, radiolabeled flumazenil competition, cerebellum membranes; conditions: rat cerebellum membranes, radiolabeled flumazenil 1 nM
GABAA receptor = target: T1, GABAA receptor; assay: Comparative assay: IC50 values estimated from Cheng-Prusoff equation; assay type: binding, rat; conditions: compounds of the invention; estimated from Ki by Cheng-Prusoff equation, radioligand 1 nM
T1 construct: IC50; other: compounds of the invention; estimated from Ki by Cheng-Prusoff equation, radioligand 1 nM
Protocol: All these compounds have in common that at 3-position, the imidazo[1,2-b]pyradizine ring have an acetamide. The rest of compounds disclosed in WO89/01333 are not structurally so related with the compounds of the present invention.
The IC50 values were estimated from Cheng-Prusoff equation (Cheng Y. C. and Prusoff W. H.; Biochem. Pharmacol. 22, 3099-3108, 1973)
[formula] where, Ki is determined for each one of the compounds of the invention as described above (section (a)). [RL*]: radiolabeled ligand concentration (1 nM). Kd: affinity constant (cerebellum 1.34 nM/spinal cord 1.19 nM)

Structure (SMILES) | inhibition in vivo at 98 µmol/kg (male CD1 mice) [%] | % inhib 10^−5 M, affinity for the α1-subunit of the GABAA receptor (α1-GABAA receptor; 10^−5 M) [%] | % inhib 10^−7 M, affinity for the α1-subunit of the GABAA receptor (α1-GABAA receptor; 10^−7 M) [%] | IC50 (GABAA receptor) [nM]
Cc1ccc(-c2nc3ccc(C)nn3c2CC(=O)Nc2ccccn2)cc1 [Example 88, 2-(6-Methyl-2-p-tolyl-imidazo[1,2-b]pyridazin-3-yl)-N-pyridin-2-yl-acetamide] | 88.5 | 100.2 | 83.9 | 13
Cc1ccc(-c2nc3ccc(C)nn3c2CC(=O)Nc2cc(C)on2)cc1 [Example 95, N-(5-Methyl-isoxazol-3-yl)-2-(6-methyl-2-p-tolyl-imidazo[1,2-b]pyridazin-3-yl)-acetamide] |  |  |  | 17.1
Cc1ccc(-c2nc3ccc(C)nn3c2CC(=O)Nc2cc(C)no2)cc1 [Example 97, N-(3-Methyl-isoxazol-5-yl)-2-(6-methyl-2-p-tolyl-imidazo[1,2-b]pyridazin-3-yl)-acetamide] |  |  |  | 14.6
Cc1ccc(-c2nc3ccc(C)nn3c2CC(=O)Nc2nncs2)cc1 [Example 98, 2-(6-Methyl-2-p-tolyl-imidazo[1,2-b]pyridazin-3-yl)-N-[1,3,4]thiadiazol-2-yl-acetamide] |  |  |  | 12.2
